Type in all cases: cell-based
In assay [1] the test system is HEK-ISRE-luc cells with conditioned media from PBMC. Briefly: Interferon production in human PBMC (PBMC HEK-ISRE-luc LEC). As to conditions: lowest effective concentration; for minimal effective concentration: Homo sapiens, PBMC, read-out: PBMC HEK-ISRE-luc (LEC). As for the experimental part: Measurement of Interferon Production in Human PBMC (PBMC HEK-ISRE-Luc LEC)
Activation of human TLR7 results in robust production of interferon by plasmacytoid dendritic cells present in human blood. The potential of compounds to induce interferon was evaluated by determination of interferon in the conditioned media from peripheral blood mononuclear cells (PBMC). The presence of interferon in the samples was determined, using an interferon reporter cell line stably expressing an interferon-stimulated responsive elements (ISRE)-luc reporter construct. The ISRE element with sequence GAAACTGAAACT (SEQ ID NO: 1) is highly responsive to the STAT1-STAT2-IRF9 transcription factor, which becomes activated upon binding of IFN-I to the IFN receptor. Briefly, PBMCs were prepared from buffy coats of at least two donors using a standard Ficoll centrifugation protocol. Isolated PBMCs were resuspended in RPMI medium supplemented with 10% human AB serum and 2×10^5 cells/well were dispensed into 384-well plates containing compounds (70 μL total volume). After overnight incubation of the PBMCs with the compounds, 10 μL of supernatant was transferred to 384-well plates containing 5×10^3 HEK-ISRE-luc cells/well in 30 μL (plated the day before). Following 24 hours of incubation, activation of the ISRE elements was measured by assaying luciferase activity using 40 μL/well Steady Lite Plus substrate (Perkin Elmer) and measured with ViewLux ultraHTS microplate imager (Perkin Elmer). The stimulating activity of each compound on the HEK-ISRE-luc cells was reported as LEC. The LEC in turn indicates the degree of ISRE activation on transfer of a defined amount of PBMC culture medium.
Recombinant interferon alfa-2a (Roferon-A) was used as a standard control compound.

The test system of a further assay is human TLR7 dIRR2 mutant. Kind of assay: Reporter assay for TLR7 activity, HEK293 transfected with mutant TLR7 (dIRR2 deletion) and NFκB-luc. Conditions: lowest effective concentration; 48 h transfection. Background: A reporter such as luciferase makes a cellular process visible.
For assay [2], the system named is Huh-7 luc/neo HCV replicon cells with conditioned media from PBMC. Briefly: Interferon production in human PBMC (PBMC-HUH7_EC50), HCV replicon readout with conditioned media. Conditions: concentration applied to PBMCs giving 50% reduction of replicon luciferase activity. As for the experimental part:
Measurement of Interferon Production in Human PBMC (PBMC-HUH7_EC50)
Activation of human TLR7 results in robust production of interferon by plasmacytoid dendritic cells present in human blood. The potential of compounds to induce interferon was evaluated by looking at the antiviral activity in the HCV replicon system upon incubation with conditioned media from peripheral blood mononuclear cells (PBMC). The HCV replicon assay is based on a bicistronic expression construct, as described by Lohmann et al. (Science (1999) 285: 110-113; Journal of Virology (2003) 77: 3007-15 3019) with modifications described by Krieger et al. (Journal of Virology (2001) 75: 4614-4624). The assay utilized the stably transfected cell line Huh-7 luc/neo harboring an RNA encoding a bicistronic expression construct comprising the wild type NS3-NS5B regions of HCV type 1b translated from an Internal Ribosome Entry Site (IRES) from encephalomyocarditis virus (EMCV), preceded by a reporter gene (Firefly-luciferase) and a selectable marker gene (neoR, neomycine phosphotransferase). The construct is flanked by 5′ and 3′ NTRs (non-translated regions) from HCV type 1b. Continued culture of the replicon cells in the presence of G418 (neoR) is dependent on the replication of the HCV RNA. The stably transfected replicon cells that replicate HCV RNA autonomously and to high levels, encoding inter alia luciferase, were used for profiling of the conditioned cell culture media. Briefly, PBMCs were prepared from buffy coats of at least two donors using a standard Ficoll centrifugation protocol. Isolated PBMCs were resuspended in RPMI medium supplemented with 10% human AB serum and 2×10^5 cells/well were dispensed into 384-well plates containing compounds (70 μL total volume). After overnight incubation, […] was transferred to 384-well plates containing 2.2×10^3 replicon cells/well in 30 μL (plated the day before). Following 24 hours of incubation, replication was measured by assaying luciferase activity using 40 μL/well Steady Lite Plus substrate (Perkin Elmer) and measured with ViewLux ultraHTS microplate imager (Perkin Elmer). The inhibitory activity of each compound on the Huh7-luc/neo cells were reported as EC50 values, defined as the compound concentration applied to the PBMCs resulting in a 50% reduction of luciferase activity which in turn indicates the degree of replication of the replicon RNA on transfer of a defined amount of PBMC culture medium. Recombinant interferon α-2a (Roferon-A) was used as a standard control compound.
(Replicon systems follow genome replication, usually without infectious particles.)

The next assay concerns the target human TLR7 (Homo sapiens (Human), UniProt Q9NYK1). Kind of assay: Reporter assay for TLR7 activity, HEK293 transiently transfected with wild type TLR7 and NFκB-luc. Conditions: lowest effective concentration; 48 h transfection.

Structures are written as SMILES.

Sequence of human TLR7 (Q9NYK1 27-1049): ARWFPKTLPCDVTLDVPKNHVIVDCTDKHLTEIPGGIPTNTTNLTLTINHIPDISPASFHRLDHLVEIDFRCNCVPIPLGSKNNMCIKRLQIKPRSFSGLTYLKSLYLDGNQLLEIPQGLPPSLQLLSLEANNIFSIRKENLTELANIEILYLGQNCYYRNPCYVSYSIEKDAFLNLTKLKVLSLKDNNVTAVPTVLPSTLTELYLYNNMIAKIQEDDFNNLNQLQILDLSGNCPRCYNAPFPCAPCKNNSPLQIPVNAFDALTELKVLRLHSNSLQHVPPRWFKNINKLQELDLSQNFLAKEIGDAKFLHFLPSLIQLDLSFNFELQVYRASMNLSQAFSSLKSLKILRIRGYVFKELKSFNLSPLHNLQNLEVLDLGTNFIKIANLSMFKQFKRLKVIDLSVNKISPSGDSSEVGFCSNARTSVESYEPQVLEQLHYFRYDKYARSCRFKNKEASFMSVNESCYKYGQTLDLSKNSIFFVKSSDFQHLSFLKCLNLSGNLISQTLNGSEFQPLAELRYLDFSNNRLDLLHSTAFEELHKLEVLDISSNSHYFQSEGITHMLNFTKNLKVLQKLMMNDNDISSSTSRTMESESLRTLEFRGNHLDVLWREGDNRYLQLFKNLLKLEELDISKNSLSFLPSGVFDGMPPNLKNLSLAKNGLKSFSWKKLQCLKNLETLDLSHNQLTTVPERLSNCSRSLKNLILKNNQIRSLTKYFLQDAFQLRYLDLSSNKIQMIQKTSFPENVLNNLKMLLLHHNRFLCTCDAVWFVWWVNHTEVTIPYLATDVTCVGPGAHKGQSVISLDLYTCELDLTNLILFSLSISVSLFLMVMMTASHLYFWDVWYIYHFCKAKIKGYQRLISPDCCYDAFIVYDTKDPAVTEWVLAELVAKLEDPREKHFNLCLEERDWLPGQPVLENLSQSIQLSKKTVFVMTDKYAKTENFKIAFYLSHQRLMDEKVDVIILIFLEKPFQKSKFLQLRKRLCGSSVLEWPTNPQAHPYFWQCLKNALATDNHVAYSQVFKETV

The term EC50 denotes the concentration at which the effect is half-maximal. Take `COCCc1nnc(-c2nc(N)c3[nH]c(=O)n(Cc4ccccc4)c3n2)o1` [Compound 34]: the minimal effective concentration in assay [1] was 0.49 µM. Moreover, the “TLR7-dIRR2_LEC 48 h” value with human TLR7 dIRR2 mutant came to 1.21 µM. The same compound came in with an EC50 in assay [2] (Homo sapiens, Huh-7) of 690 nM. In addition, on human TLR7, the “TLR7-wt_LEC 48 h” value was more than 25 µM.
Turning to `Cc1cnn(-c2nc(N)c3[nH]c(=O)n(Cc4ccccc4)c3n2)c1` [Compound 35], the minimal effective concentration in assay [1] amounted to 0.1 µM. Besides, in the assay on human TLR7 dIRR2 mutant, the “TLR7-dIRR2_LEC 48 h” value amounted to 0.033 µM. In addition, it took 170 nM to reach a half-maximal effect in assay [2] (Homo sapiens, Huh-7) (EC50). Moreover, the “TLR7-wt_LEC 48 h” value at human TLR7 amounted to 0.36 µM.
For `Nc1nc(-n2cccn2)nc2c1[nH]c(=O)n2Cc1ccccc1` [Compound 36], in assay [1], the minimal effective concentration stood at 0.033 µM. In addition, in the assay with human TLR7 dIRR2 mutant, the “TLR7-dIRR2_LEC 48 h” value turned out to be 0.017 µM. Also, in assay [2] (Homo sapiens, Huh-7), the midpoint of the response, the EC50, lay at 47 nM. Also, the “TLR7-wt_LEC 48 h” value at human TLR7 was found to be 0.22 µM.
For the compound `CN(C)CCOc1ccc(Cn2c(=O)[nH]c3c(N)nc(-c4nc(C5CC5)c[nH]4)nc32)cn1` [Compound 54], the minimal effective concentration in assay [1] stood at 0.07 µM. For the same compound, the “TLR7-dIRR2_LEC 48 h” value in the assay on human TLR7 dIRR2 mutant turned out to be 5.65 µM. This compound also yielded an EC50 in assay [2] (Homo sapiens, Huh-7) of 50 nM. Moreover, at human TLR7, the “TLR7-wt_LEC 48 h” value is 16.1 µM.
As for `COC(=O)COc1ccc(Cn2c(=O)[nH]c3c(N)nc(-c4ncc[nH]4)nc32)cn1` [Compound 57], in assay [1], the minimal effective concentration came out at 1.38 µM. Also, in the assay with human TLR7 dIRR2 mutant, the “TLR7-dIRR2_LEC 48 h” value stood at 0.06 µM. For the same compound, the EC50 in assay [2] (Homo sapiens, Huh-7) worked out at 1210 nM. Moreover, at human TLR7, the “TLR7-wt_LEC 48 h” value is 0.44 µM.
Turning to `Nc1nc(-c2ncc[nH]2)nc2c1[nH]c(=O)n2Cc1ccc(OCC(=O)O)nc1` [Compound 58], the minimal effective concentration in assay [1] was 2.69 µM. For the same compound, the “TLR7-dIRR2_LEC 48 h” value in the assay with human TLR7 dIRR2 mutant was 0.06 µM. This compound displayed an EC50 in assay [2] (Homo sapiens, Huh-7) of 2750 nM. Moreover, the “TLR7-wt_LEC 48 h” value at human TLR7 was 0.99 µM.
Take `Nc1nc(-c2nc(C3CC3)c[nH]2)nc2c1[nH]c(=O)n2Cc1ccc2c(c1)CNCC2` [Compound 60]: the minimal effective concentration in assay [1] was 0.019 µM. Besides, the “TLR7-dIRR2_LEC 48 h” value in the assay on human TLR7 dIRR2 mutant is 1.25 µM. Besides, a half-maximal response in assay [2] (Homo sapiens, Huh-7) (EC50) required 34 nM. Further, the “TLR7-wt_LEC 48 h” value at human TLR7 was more than 25 µM.
`CN1CCN(CCCCCn2c(=O)[nH]c3c(N)nc(-c4ncc[nH]4)nc32)CC1` [Compound 61]: the “PBMC HEK-ISRE-luc (LEC)” value in assay [1] came out at 0.95 µM. In addition, the “TLR7-dIRR2_LEC 48 h” value with human TLR7 dIRR2 mutant turned out to be 9.73 µM. Moreover, the EC50 in assay [2] was determined as 1340 nM. Also, the “TLR7-wt_LEC 48 h” value at human TLR7 was more than 25 µM.
On to `Nc1nc(-c2nc(C3CC3)c[nH]2)nc2c1[nH]c(=O)n2CCCCCCN1CCCC1` [Compound 62], for which the minimal effective concentration in assay [1] amounted to 0.72 µM. In addition, in the assay on human TLR7 dIRR2 mutant, the “TLR7-dIRR2_LEC 48 h” value is more than 25 µM. The compound also had an EC50 in assay [2] (Homo sapiens, Huh-7) of 700 nM. Further, the “TLR7-wt_LEC 48 h” value at human TLR7 came out at 21.2 µM.
Taken in the same sequence, the figures for `Nc1nc(-c2ncc[nH]2)nc2c1[nH]c(=O)n2CC1CCOCC1` [Compound 63] were 4.39 µM, 2.58 µM, 6720 nM and more than 25 µM.

Source of the values: patent US10280167B2, “Purine derivatives for the treatment of viral infections” (JANSSEN SCIENCES IRELAND UC, priority 2011, dated 2019).
